Where a SMILES comes first, the peptide text is derived from it. Bridges are numbered along the chain shown (N, C = ends). [ ]: non-standard residue; d: D form. hPhe(3-Cl-4-CF3) = N[C@@H](CCc1ccc(C(F)(F)F)c(Cl)c1)C(=O)O; NPrPhe(4-CF3) = CCCN[C@@H](Cc1ccc(C(F)(F)F)cc1)C(=O)O; NMeGly(cPent) = CN[C@H](C(=O)O)C1CCCC1; Pro(4,4-F2) = O=C(O)[C@@H]1CC(F)(F)CN1; Hyp = O=C(O)[C@@H]1C[C@@H](O)CN1; NMeD = CN[C@@H](CC(=O)O)C(=O)O; NMeL = CN[C@@H](CC(C)C)C(=O)O; NMeA = CN[C@@H](C)C(=O)O; Ac5c = NC1(C(=O)O)CCCC1; Aze = O=C(O)[C@@H]1CCN1; Ac4c = NC1(C(=O)O)CCC1; Sar = CNCC(=O)O
Assays:
[1] = biological target: GDP-bound HRAS wild-type protein (Homo sapiens, UniProt P01112); test: Binding to HRAS by surface plasmon resonance (SPR), Single Cycle Kinetics; settings: SPR, GDP-bound HRAS wild-type protein vs GDP-bound KRAS wild-type protein
[2] = biological target: GDP-bound NRAS wild-type protein (Homo sapiens, UniProt P01111); test: Binding to NRAS by surface plasmon resonance (SPR), Single Cycle Kinetics; settings: SPR, GDP-bound NRAS wild-type protein vs GDP-bound KRAS wild-type protein
[3] = biological target: GDP-bound KRAS wild-type protein (Homo sapiens, UniProt P01116); test: Binding to KRAS by surface plasmon resonance (SPR), Single Cycle Kinetics; settings: SPR Single Cycle Kinetics, GDP-bound KRAS wild-type protein, 1:1 binding model; read-out: KRAS KD
Sequence of GDP-bound KRAS wild-type protein (P01116 whole entry): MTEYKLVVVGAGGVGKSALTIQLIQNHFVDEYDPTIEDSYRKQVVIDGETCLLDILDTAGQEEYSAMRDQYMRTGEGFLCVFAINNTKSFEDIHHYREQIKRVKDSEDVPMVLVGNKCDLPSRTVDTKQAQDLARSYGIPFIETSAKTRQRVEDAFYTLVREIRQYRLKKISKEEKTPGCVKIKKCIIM

Sequence of GDP-bound HRAS wild-type protein (P01112 whole entry): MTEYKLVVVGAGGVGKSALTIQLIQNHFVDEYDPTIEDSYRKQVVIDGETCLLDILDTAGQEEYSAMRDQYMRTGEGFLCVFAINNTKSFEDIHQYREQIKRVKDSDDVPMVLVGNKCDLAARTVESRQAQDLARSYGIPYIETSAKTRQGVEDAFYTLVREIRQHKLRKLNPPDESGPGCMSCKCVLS
Sequence of GDP-bound NRAS wild-type protein (P01111 whole entry): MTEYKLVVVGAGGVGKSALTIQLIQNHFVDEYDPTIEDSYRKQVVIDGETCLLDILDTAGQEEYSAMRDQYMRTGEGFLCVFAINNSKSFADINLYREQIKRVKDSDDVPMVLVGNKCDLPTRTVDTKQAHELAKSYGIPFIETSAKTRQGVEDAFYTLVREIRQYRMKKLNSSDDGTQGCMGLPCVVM

SMILES	HRAS/KRAS (ratio of KD value with respect to HRAS to KD value with respect to KRAS) [1]	NRAS/KRAS (ratio of KD value with respect to NRAS to KD value with respect to KRAS) [2]	Kd [3] [nM]
CCCN1C(=O)CN(C)C(=O)[C@@H]2CCN2C(=O)[C@H]([C@@H](C)CC)NC(=O)[C@H](CC(C)C)N(C)C(=O)C[C@@H](C(=O)N(C)C)N(C)C(=O)[C@H](C2CCCC2)N(C)C(=O)C2(CCC2)NC(=O)[C@@H]2CCCN2C(=O)[C@H](CCc2ccc(C(F)(F)F)c(Cl)c2)NC(=O)CN(C)C(=O)[C@@H]1Cc1ccc(C(F)(F)F)cc1 [PP0430] ([NMeL]I[Aze][Sar][NPrPhe(4-CF3)][Sar][hPhe(3-Cl-4-CF3)]P[Ac4c][NMeGly(cPent)][NMeD]-NMe2; lactam N-11)	B (a compound having 3 or more and less than 10 is denoted as B)	B (a compound having 3 or more and less than 10 is denoted as B)	0.26
CCCN1C(=O)CN(C)C(=O)[C@@H]2CCN2C(=O)[C@H]([C@@H](C)CC)NC(=O)[C@H](CC(C)C)N(C)C(=O)C[C@@H](C(=O)N(C)C)N(C)C(=O)[C@H](C2CCCC2)N(C)C(=O)C2(CCCC2)NC(=O)[C@@H]2C[C@@H](OCC)CN2C(=O)[C@H](CCc2ccc(C(F)(F)F)c(Cl)c2)NC(=O)CN(C)C(=O)[C@@H]1Cc1ccc(C(F)(F)F)cc1 [PP0433] ([NMeL]I[Aze][Sar][NPrPhe(4-CF3)][Sar][hPhe(3-Cl-4-CF3)][Hyp](Et)[Ac5c][NMeGly(cPent)][NMeD]-NMe2; lactam N-11)	B (a compound having 3 or more and less than 10 is denoted as B)	B (a compound having 3 or more and less than 10 is denoted as B)	0.15
CCCN1C(=O)[C@@H]2CCN2C(=O)[C@H](C)N(C)C(=O)[C@H]([C@@H](C)CC)NC(=O)[C@H](CC(C)C)N(C)C(=O)C[C@@H](C(=O)N(C)C)N(C)C(=O)[C@H](C2CCCC2)N(C)C(=O)C2(CCC2)NC(=O)[C@@H]2CCCN2C(=O)[C@H](CCc2ccc(C(F)(F)F)c(Cl)c2)NC(=O)CN(C)C(=O)[C@@H]1Cc1ccc(C(F)(F)F)cc1 [PP0435] ([NMeL]I[NMeA][Aze][NPrPhe(4-CF3)][Sar][hPhe(3-Cl-4-CF3)]P[Ac4c][NMeGly(cPent)][NMeD]-NMe2; lactam N-11)	C (A compound having a KD ratio of 0.1 or more and less than 3 is denoted as C)	C (A compound having a KD ratio of 0.1 or more and less than 3 is denoted as C)	0.047
CCCN1C(=O)[C@@H]2CCN2C(=O)[C@H](C)N(C)C(=O)[C@H]([C@@H](C)CC)NC(=O)[C@H](CC(C)C)N(C)C(=O)C[C@@H](C(=O)N(C)C)N(C)C(=O)[C@H](C2CCCC2)N(C)C(=O)C2(CCCC2)NC(=O)[C@@H]2CC(F)(F)CN2C(=O)[C@H](CCc2ccc(C(F)(F)F)c(Cl)c2)NC(=O)CN(C)C(=O)[C@@H]1Cc1ccc(C(F)(F)F)cc1 [PP0436] ([NMeL]I[NMeA][Aze][NPrPhe(4-CF3)][Sar][hPhe(3-Cl-4-CF3)][Pro(4,4-F2)][Ac5c][NMeGly(cPent)][NMeD]-NMe2; lactam N-11)	C (A compound having a KD ratio of 0.1 or more and less than 3 is denoted as C)	C (A compound having a KD ratio of 0.1 or more and less than 3 is denoted as C)	0.054
CCCN1C(=O)[C@@H]2CCN2C(=O)[C@H](C)N(C)C(=O)[C@H]([C@@H](C)CC)NC(=O)[C@H](CC(C)C)N(C)C(=O)C[C@@H](C(=O)N(C)C)N(C)C(=O)[C@H](C2CCCC2)N(C)C(=O)C2(CCC2)NC(=O)[C@@H]2CC(F)(F)CN2C(=O)[C@H](CCc2ccc(C(F)(F)F)c(Cl)c2)NC(=O)CN(C)C(=O)[C@@H]1Cc1ccc(C(F)(F)F)cc1 [PP0437] ([NMeL]I[NMeA][Aze][NPrPhe(4-CF3)][Sar][hPhe(3-Cl-4-CF3)][Pro(4,4-F2)][Ac4c][NMeGly(cPent)][NMeD]-NMe2; lactam N-11)	B (a compound having 3 or more and less than 10 is denoted as B)	C (A compound having a KD ratio of 0.1 or more and less than 3 is denoted as C)	0.036
CCCN1C(=O)[C@@H]2CCN2C(=O)[C@H](C)N(C)C(=O)[C@H]([C@@H](C)CC)NC(=O)[C@H](CC(C)C)N(C)C(=O)C[C@@H](C(=O)N(C)C)N(C)C(=O)[C@H](C2CCCC2)N(C)C(=O)C2(CCCC2)NC(=O)[C@@H]2C[C@@H](OCC)CN2C(=O)[C@H](CCc2ccc(C(F)(F)F)c(Cl)c2)NC(=O)CN(C)C(=O)[C@@H]1Cc1ccc(C(F)(F)F)cc1 [PP0438] ([NMeL]I[NMeA][Aze][NPrPhe(4-CF3)][Sar][hPhe(3-Cl-4-CF3)][Hyp](Et)[Ac5c][NMeGly(cPent)][NMeD]-NMe2; lactam N-11)	C (A compound having a KD ratio of 0.1 or more and less than 3 is denoted as C)	C (A compound having a KD ratio of 0.1 or more and less than 3 is denoted as C)	0.03
CCCN1C(=O)[C@@H]2CCN2C(=O)CN(C)C(=O)[C@H]([C@@H](C)CC)NC(=O)[C@H](CC(C)C)N(C)C(=O)C[C@@H](C(=O)N(C)C)N(C)C(=O)[C@H](C2CCCC2)N(C)C(=O)C2(CCCC2)NC(=O)[C@@H]2CCCN2C(=O)[C@H](CCc2ccc(C(F)(F)F)c(Cl)c2)NC(=O)CN(C)C(=O)[C@@H]1Cc1ccc(C(F)(F)F)cc1 [PP0440] ([NMeL]I[Sar][Aze][NPrPhe(4-CF3)][Sar][hPhe(3-Cl-4-CF3)]P[Ac5c][NMeGly(cPent)][NMeD]-NMe2; lactam N-11)	B (a compound having 3 or more and less than 10 is denoted as B)	C (A compound having a KD ratio of 0.1 or more and less than 3 is denoted as C)	0.046
CCCN1C(=O)[C@@H]2CCN2C(=O)CN(C)C(=O)[C@H]([C@@H](C)CC)NC(=O)[C@H](CC(C)C)N(C)C(=O)C[C@@H](C(=O)N(C)C)N(C)C(=O)[C@H](C2CCCC2)N(C)C(=O)C2(CCC2)NC(=O)[C@@H]2CCCN2C(=O)[C@H](CCc2ccc(C(F)(F)F)c(Cl)c2)NC(=O)CN(C)C(=O)[C@@H]1Cc1ccc(C(F)(F)F)cc1 [PP0441] ([NMeL]I[Sar][Aze][NPrPhe(4-CF3)][Sar][hPhe(3-Cl-4-CF3)]P[Ac4c][NMeGly(cPent)][NMeD]-NMe2; lactam N-11)	C (A compound having a KD ratio of 0.1 or more and less than 3 is denoted as C)	C (A compound having a KD ratio of 0.1 or more and less than 3 is denoted as C)	0.072
CCCN1C(=O)[C@@H]2CCN2C(=O)CN(C)C(=O)[C@H]([C@@H](C)CC)NC(=O)[C@H](CC(C)C)N(C)C(=O)C[C@@H](C(=O)N(C)C)N(C)C(=O)[C@H](C2CCCC2)N(C)C(=O)C2(CCCC2)NC(=O)[C@@H]2CC(F)(F)CN2C(=O)[C@H](CCc2ccc(C(F)(F)F)c(Cl)c2)NC(=O)CN(C)C(=O)[C@@H]1Cc1ccc(C(F)(F)F)cc1 [PP0442] ([NMeL]I[Sar][Aze][NPrPhe(4-CF3)][Sar][hPhe(3-Cl-4-CF3)][Pro(4,4-F2)][Ac5c][NMeGly(cPent)][NMeD]-NMe2; lactam N-11)	C (A compound having a KD ratio of 0.1 or more and less than 3 is denoted as C)	C (A compound having a KD ratio of 0.1 or more and less than 3 is denoted as C)	0.037
CCCN1C(=O)[C@@H]2CCN2C(=O)CN(C)C(=O)[C@H]([C@@H](C)CC)NC(=O)[C@H](CC(C)C)N(C)C(=O)C[C@@H](C(=O)N(C)C)N(C)C(=O)[C@H](C2CCCC2)N(C)C(=O)C2(CCC2)NC(=O)[C@@H]2CC(F)(F)CN2C(=O)[C@H](CCc2ccc(C(F)(F)F)c(Cl)c2)NC(=O)CN(C)C(=O)[C@@H]1Cc1ccc(C(F)(F)F)cc1 [PP0443] ([NMeL]I[Sar][Aze][NPrPhe(4-CF3)][Sar][hPhe(3-Cl-4-CF3)][Pro(4,4-F2)][Ac4c][NMeGly(cPent)][NMeD]-NMe2; lactam N-11)	C (A compound having a KD ratio of 0.1 or more and less than 3 is denoted as C)	C (A compound having a KD ratio of 0.1 or more and less than 3 is denoted as C)	0.027
CCCN1C(=O)[C@@H]2CCN2C(=O)CN(C)C(=O)[C@H]([C@@H](C)CC)NC(=O)[C@H](CC(C)C)N(C)C(=O)C[C@@H](C(=O)N(C)C)N(C)C(=O)[C@H](C2CCCC2)N(C)C(=O)C2(CCCC2)NC(=O)[C@@H]2C[C@@H](OCC)CN2C(=O)[C@H](CCc2ccc(C(F)(F)F)c(Cl)c2)NC(=O)CN(C)C(=O)[C@@H]1Cc1ccc(C(F)(F)F)cc1 [PP0444] ([NMeL]I[Sar][Aze][NPrPhe(4-CF3)][Sar][hPhe(3-Cl-4-CF3)][Hyp](Et)[Ac5c][NMeGly(cPent)][NMeD]-NMe2; lactam N-11)	C (A compound having a KD ratio of 0.1 or more and less than 3 is denoted as C)	C (A compound having a KD ratio of 0.1 or more and less than 3 is denoted as C)	0.031
CCCN1C(=O)[C@@H]2CCN2C(=O)CN(C)C(=O)[C@H]([C@@H](C)CC)NC(=O)[C@H](CC(C)C)N(C)C(=O)C[C@@H](C(=O)N(C)C)N(C)C(=O)[C@H](C2CCCC2)N(C)C(=O)C2(CCC2)NC(=O)[C@@H]2C[C@@H](OCC)CN2C(=O)[C@H](CCc2ccc(C(F)(F)F)c(Cl)c2)NC(=O)CN(C)C(=O)[C@@H]1Cc1ccc(C(F)(F)F)cc1 [PP0445] ([NMeL]I[Sar][Aze][NPrPhe(4-CF3)][Sar][hPhe(3-Cl-4-CF3)][Hyp](Et)[Ac4c][NMeGly(cPent)][NMeD]-NMe2; lactam N-11)	C (A compound having a KD ratio of 0.1 or more and less than 3 is denoted as C)	C (A compound having a KD ratio of 0.1 or more and less than 3 is denoted as C)	0.025
